Results taken from PubChem BioAssay (NCI).
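Five compound concentrations were applied to cells in 96-well plates for 48 hours; endpoints were derived by simple linear interpolation of the resulting dose-response curve. TGI marks complete inhibition of growth.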

test system: 786-0 renal; experiment: DTP human tumour cell line panel, 48 h

| Structure (SMILES) | TGI [µM] |
| --- | --- |
| CC(N)Cc1ccc(F)cc1 (centres undefined) | > 100 |
| CNCCCCN(C)/[N+]([O-])=N\O | > 100 |
| O=C(CCc1n[nH]c(=S)o1)Nc1ccc(Cl)cc1Cl | > 100 |
| COc1cccc2c1N[S@](=O)S2 | > 100 |

test system: A498 renal; experiment: DTP human tumour cell line panel, 48 h

| Structure (SMILES) | TGI [µM] |
| --- | --- |
| CC(N)Cc1ccc(F)cc1 (centres undefined) | > 100 |
| CCNC(=O)N(CC)CN(CC)C(=O)NCC | > 100 |
| O=C(CCc1n[nH]c(=S)o1)Nc1ccc(Cl)cc1Cl | > 100 |

test system: A549 NSCLC; experiment: DTP human tumour cell line panel, 48 h

| Structure (SMILES) | TGI [µM] |
| --- | --- |
| CC(N)Cc1ccc(F)cc1 (centres undefined) | > 100 |
| CNCCCCN(C)/[N+]([O-])=N\O | > 100 |
| CCNC(=O)N(CC)CN(CC)C(=O)NCC | > 100 |
| O=C(CCc1n[nH]c(=S)o1)Nc1ccc(Cl)cc1Cl | > 100 |
| COc1cccc2c1N[S@](=O)S2 | > 100 |

test system: ACHN renal; experiment: DTP human tumour cell line panel, 48 h

| Structure (SMILES) | TGI [µM] |
| --- | --- |
| CC(N)Cc1ccc(F)cc1 (centres undefined) | > 100 |
| CNCCCCN(C)/[N+]([O-])=N\O | > 100 |
| CCNC(=O)N(CC)CN(CC)C(=O)NCC | > 100 |
| O=C(CCc1n[nH]c(=S)o1)Nc1ccc(Cl)cc1Cl | > 100 |
| COc1cccc2c1N[S@](=O)S2 | > 100 |

test system: CAKI-1 renal; experiment: DTP human tumour cell line panel, 48 h

| Structure (SMILES) | TGI [µM] |
| --- | --- |
| CC(N)Cc1ccc(F)cc1 (centres undefined) | > 100 |
| CNCCCCN(C)/[N+]([O-])=N\O | > 100 |
| CCNC(=O)N(CC)CN(CC)C(=O)NCC | > 100 |
| O=C(CCc1n[nH]c(=S)o1)Nc1ccc(Cl)cc1Cl | > 100 |
| COc1cccc2c1N[S@](=O)S2 | > 100 |

test system: CCRF-CEM leukemia; experiment: DTP human tumour cell line panel, 48 h

| Structure (SMILES) | TGI [µM] |
| --- | --- |
| CC(N)Cc1ccc(F)cc1 (centres undefined) | > 100 |
| CNCCCCN(C)/[N+]([O-])=N\O | > 100 |
| CCNC(=O)N(CC)CN(CC)C(=O)NCC | > 100 |
| O=C(CCc1n[nH]c(=S)o1)Nc1ccc(Cl)cc1Cl | > 100 |
| COc1cccc2c1N[S@](=O)S2 | > 100 |

test system: COLO 205 colon; experiment: DTP human tumour cell line panel, 48 h

| Structure (SMILES) | TGI [µM] |
| --- | --- |
| CC(N)Cc1ccc(F)cc1 (centres undefined) | > 100 |
| CNCCCCN(C)/[N+]([O-])=N\O | > 100 |
| CCNC(=O)N(CC)CN(CC)C(=O)NCC | > 100 |
| O=C(CCc1n[nH]c(=S)o1)Nc1ccc(Cl)cc1Cl | > 100 |

test system: DLD-1 colon; experiment: DTP human tumour cell line panel, 48 h

| Structure (SMILES) | TGI [µM] |
| --- | --- |
| CC(N)Cc1ccc(F)cc1 (centres undefined) | > 100 |
| CNCCCCN(C)/[N+]([O-])=N\O | > 100 |
| CCNC(=O)N(CC)CN(CC)C(=O)NCC | > 100 |
| O=C(CCc1n[nH]c(=S)o1)Nc1ccc(Cl)cc1Cl | > 100 |
| COc1cccc2c1N[S@](=O)S2 | > 100 |

test system: DMS 114 small cell lung; experiment: DTP human tumour cell line panel, 48 h

| Structure (SMILES) | TGI [µM] |
| --- | --- |
| CC(N)Cc1ccc(F)cc1 (centres undefined) | > 100 |
| CNCCCCN(C)/[N+]([O-])=N\O | > 100 |
| CCNC(=O)N(CC)CN(CC)C(=O)NCC | > 100 |
| O=C(CCc1n[nH]c(=S)o1)Nc1ccc(Cl)cc1Cl | > 100 |

test system: DMS 273 small cell lung; experiment: DTP human tumour cell line panel, 48 h

| Structure (SMILES) | TGI [µM] |
| --- | --- |
| CC(N)Cc1ccc(F)cc1 (centres undefined) | > 100 |
| CNCCCCN(C)/[N+]([O-])=N\O | > 100 |
| O=C(CCc1n[nH]c(=S)o1)Nc1ccc(Cl)cc1Cl | > 100 |
| COc1cccc2c1N[S@](=O)S2 | > 100 |

test system: EKVX NSCLC; experiment: DTP human tumour cell line panel, 48 h

| Structure (SMILES) | TGI [µM] |
| --- | --- |
| CC(N)Cc1ccc(F)cc1 (centres undefined) | > 100 |
| CNCCCCN(C)/[N+]([O-])=N\O | > 100 |
| CCNC(=O)N(CC)CN(CC)C(=O)NCC | > 100 |
| O=C(CCc1n[nH]c(=S)o1)Nc1ccc(Cl)cc1Cl | > 100 |
| COc1cccc2c1N[S@](=O)S2 | > 100 |

test system: HCC-2998 colon; experiment: DTP human tumour cell line panel, 48 h

| Structure (SMILES) | TGI [µM] |
| --- | --- |
| CC(N)Cc1ccc(F)cc1 (centres undefined) | > 100 |
| CNCCCCN(C)/[N+]([O-])=N\O | > 100 |
| CCNC(=O)N(CC)CN(CC)C(=O)NCC | > 100 |
| O=C(CCc1n[nH]c(=S)o1)Nc1ccc(Cl)cc1Cl | > 100 |

test system: HCT-116 colon; experiment: DTP human tumour cell line panel, 48 h

| Structure (SMILES) | TGI [µM] |
| --- | --- |
| CC(N)Cc1ccc(F)cc1 (centres undefined) | > 100 |
| CNCCCCN(C)/[N+]([O-])=N\O | > 100 |
| CCNC(=O)N(CC)CN(CC)C(=O)NCC | > 100 |
| O=C(CCc1n[nH]c(=S)o1)Nc1ccc(Cl)cc1Cl | > 100 |
| COc1cccc2c1N[S@](=O)S2 | > 100 |

test system: HCT-15 colon; experiment: DTP human tumour cell line panel, 48 h

| Structure (SMILES) | TGI [µM] |
| --- | --- |
| CC(N)Cc1ccc(F)cc1 (centres undefined) | > 100 |
| CNCCCCN(C)/[N+]([O-])=N\O | > 100 |
| CCNC(=O)N(CC)CN(CC)C(=O)NCC | > 100 |
| O=C(CCc1n[nH]c(=S)o1)Nc1ccc(Cl)cc1Cl | 46.1 |
| COc1cccc2c1N[S@](=O)S2 | > 100 |

test system: HL-60(TB) leukemia; experiment: DTP human tumour cell line panel, 48 h

| Structure (SMILES) | TGI [µM] |
| --- | --- |
| CC(N)Cc1ccc(F)cc1 (centres undefined) | > 100 |
| CNCCCCN(C)/[N+]([O-])=N\O | > 100 |
| CCNC(=O)N(CC)CN(CC)C(=O)NCC | > 100 |
| O=C(CCc1n[nH]c(=S)o1)Nc1ccc(Cl)cc1Cl | > 100 |
| COc1cccc2c1N[S@](=O)S2 | > 100 |

test system: HOP-18 NSCLC; experiment: DTP human tumour cell line panel, 48 h

| Structure (SMILES) | TGI [µM] |
| --- | --- |
| CC(N)Cc1ccc(F)cc1 (centres undefined) | > 100 |
| CNCCCCN(C)/[N+]([O-])=N\O | > 100 |
| O=C(CCc1n[nH]c(=S)o1)Nc1ccc(Cl)cc1Cl | > 100 |

test system: HOP-62 NSCLC; experiment: DTP human tumour cell line panel, 48 h

| Structure (SMILES) | TGI [µM] |
| --- | --- |
| CC(N)Cc1ccc(F)cc1 (centres undefined) | > 100 |
| CNCCCCN(C)/[N+]([O-])=N\O | > 100 |
| CCNC(=O)N(CC)CN(CC)C(=O)NCC | > 100 |
| O=C(CCc1n[nH]c(=S)o1)Nc1ccc(Cl)cc1Cl | > 100 |

test system: HOP-92 NSCLC; experiment: DTP human tumour cell line panel, 48 h

| Structure (SMILES) | TGI [µM] |
| --- | --- |
| CC(N)Cc1ccc(F)cc1 (centres undefined) | > 100 |
| CNCCCCN(C)/[N+]([O-])=N\O | > 100 |
| O=C(CCc1n[nH]c(=S)o1)Nc1ccc(Cl)cc1Cl | > 100 |
| COc1cccc2c1N[S@](=O)S2 | > 100 |

test system: HT29 colon; experiment: DTP human tumour cell line panel, 48 h

| Structure (SMILES) | TGI [µM] |
| --- | --- |
| CC(N)Cc1ccc(F)cc1 (centres undefined) | > 100 |
| CNCCCCN(C)/[N+]([O-])=N\O | > 100 |
| CCNC(=O)N(CC)CN(CC)C(=O)NCC | > 100 |
| O=C(CCc1n[nH]c(=S)o1)Nc1ccc(Cl)cc1Cl | > 100 |
| COc1cccc2c1N[S@](=O)S2 | > 100 |

test system: IGROV1 ovarian; experiment: DTP human tumour cell line panel, 48 h

| Structure (SMILES) | TGI [µM] |
| --- | --- |
| CC(N)Cc1ccc(F)cc1 (centres undefined) | > 100 |
| CNCCCCN(C)/[N+]([O-])=N\O | > 100 |
| O=C(CCc1n[nH]c(=S)o1)Nc1ccc(Cl)cc1Cl | > 100 |
| COc1cccc2c1N[S@](=O)S2 | > 100 |

test system: K-562 leukemia; experiment: DTP human tumour cell line panel, 48 h

| Structure (SMILES) | TGI [µM] |
| --- | --- |
| CC(N)Cc1ccc(F)cc1 (centres undefined) | > 100 |
| CNCCCCN(C)/[N+]([O-])=N\O | > 100 |
| CCNC(=O)N(CC)CN(CC)C(=O)NCC | > 100 |
| O=C(CCc1n[nH]c(=S)o1)Nc1ccc(Cl)cc1Cl | > 100 |
| COc1cccc2c1N[S@](=O)S2 | > 100 |

test system: KM12 colon; experiment: DTP human tumour cell line panel, 48 h

| Structure (SMILES) | TGI [µM] |
| --- | --- |
| CC(N)Cc1ccc(F)cc1 (centres undefined) | > 100 |
| CNCCCCN(C)/[N+]([O-])=N\O | > 100 |
| CCNC(=O)N(CC)CN(CC)C(=O)NCC | > 100 |
| O=C(CCc1n[nH]c(=S)o1)Nc1ccc(Cl)cc1Cl | > 100 |
| COc1cccc2c1N[S@](=O)S2 | > 100 |

test system: KM20L2 colon; experiment: DTP human tumour cell line panel, 48 h

| Structure (SMILES) | TGI [µM] |
| --- | --- |
| CC(N)Cc1ccc(F)cc1 (centres undefined) | > 100 |
| CNCCCCN(C)/[N+]([O-])=N\O | > 100 |
| CCNC(=O)N(CC)CN(CC)C(=O)NCC | > 100 |
| O=C(CCc1n[nH]c(=S)o1)Nc1ccc(Cl)cc1Cl | > 100 |
| COc1cccc2c1N[S@](=O)S2 | > 100 |

test system: LOX IMVI melanoma; experiment: DTP human tumour cell line panel, 48 h

| Structure (SMILES) | TGI [µM] |
| --- | --- |
| CC(N)Cc1ccc(F)cc1 (centres undefined) | > 100 |
| CCNC(=O)N(CC)CN(CC)C(=O)NCC | > 100 |
| COc1cccc2c1N[S@](=O)S2 | > 100 |

test system: LXFL 529 NSCLC; experiment: DTP human tumour cell line panel, 48 h

| Structure (SMILES) | TGI [µM] |
| --- | --- |
| CC(N)Cc1ccc(F)cc1 (centres undefined) | > 100 |
| CNCCCCN(C)/[N+]([O-])=N\O | > 100 |
| CCNC(=O)N(CC)CN(CC)C(=O)NCC | > 100 |
| O=C(CCc1n[nH]c(=S)o1)Nc1ccc(Cl)cc1Cl | > 100 |
| COc1cccc2c1N[S@](=O)S2 | > 100 |

test system: M14 melanoma; experiment: DTP human tumour cell line panel, 48 h

| Structure (SMILES) | TGI [µM] |
| --- | --- |
| CC(N)Cc1ccc(F)cc1 (centres undefined) | > 100 |
| CNCCCCN(C)/[N+]([O-])=N\O | > 100 |
| CCNC(=O)N(CC)CN(CC)C(=O)NCC | > 100 |
| O=C(CCc1n[nH]c(=S)o1)Nc1ccc(Cl)cc1Cl | > 100 |
| COc1cccc2c1N[S@](=O)S2 | > 100 |

test system: M19-MEL melanoma; experiment: DTP human tumour cell line panel, 48 h

| Structure (SMILES) | TGI [µM] |
| --- | --- |
| CNCCCCN(C)/[N+]([O-])=N\O | > 100 |
| CCNC(=O)N(CC)CN(CC)C(=O)NCC | > 100 |
| O=C(CCc1n[nH]c(=S)o1)Nc1ccc(Cl)cc1Cl | > 100 |
| COc1cccc2c1N[S@](=O)S2 | > 100 |

test system: MALME-3M melanoma; experiment: DTP human tumour cell line panel, 48 h

| Structure (SMILES) | TGI [µM] |
| --- | --- |
| CC(N)Cc1ccc(F)cc1 (centres undefined) | > 100 |
| CNCCCCN(C)/[N+]([O-])=N\O | > 100 |
| CCNC(=O)N(CC)CN(CC)C(=O)NCC | > 100 |
| O=C(CCc1n[nH]c(=S)o1)Nc1ccc(Cl)cc1Cl | > 100 |
| COc1cccc2c1N[S@](=O)S2 | > 100 |

test system: MOLT-4 leukemia; experiment: DTP human tumour cell line panel, 48 h

| Structure (SMILES) | TGI [µM] |
| --- | --- |
| CC(N)Cc1ccc(F)cc1 (centres undefined) | > 100 |
| CNCCCCN(C)/[N+]([O-])=N\O | > 100 |
| CCNC(=O)N(CC)CN(CC)C(=O)NCC | > 100 |
| O=C(CCc1n[nH]c(=S)o1)Nc1ccc(Cl)cc1Cl | > 100 |
